# Measured values published in patent US20250127159A1, “PAPER-BASED CRYOPRESERVATION OF MAMMALIAN CELL AGGREGATES” (New York University in Abu Dhabi Corporation, priority 2023, published 2025).
# What was measured:
# U87 spheroids [1] = assay: WST-1 metabolic activity of U87 spheroids under drug or DMSO treatment; assay type: cell-based
# Method: (§1) The spheroids were subjected to drug testing at varying concentrations, with DMSO serving as a solvent control. This experimental approach aimed to dissect the impact of both DMSO and drug compounds on the metabolic activity and viability of U87 spheroids.
# (§2) Control tests were first conducted with DMSO at concentrations of 1%, 2.5%, 5%, 10%, and 20% (v/v) to assess its cytotoxic effects independently of drug action. The metabolic activity of the spheroids was monitored at 0, 6, 12, 24, and 48 hours, followed by a live/dead assay at 48 hours to assess cell viability.
# (§3) Spheroid metabolic activity was measured at 6, 12, 24, and 48 hours using the WST-1 assay, and viability was assessed at 48 hours via the live/dead assay.
# U87 spheroids [2] = assay: live/dead viability assay of U87 spheroids at 48 hours
# Method: as §1, §2, §3
# in vitro = settings: human
# Method: as §1, §2, §3
smiles,measurement,setting,value
N.N.[Cl][Pt][Cl] [Cisplatin],response at higher doses,"U87 spheroids [1]; cryopreserved spheroids, 10 μM and above",delayed response
same,metabolic activity,"U87 spheroids [1]; cryopreserved spheroids, doses as low as 0.1 μM",metabolic activity decreasing
same,metabolic activity,"U87 spheroids [1]; normally grown spheroids, doses ≥10 μM",significantly reduced metabolic activity
Cn1nnc2c(C(N)=O)ncn2c1=O [TMZ],viability,U87 spheroids [2]; 400 μM,below 30%
same,viability,U87 spheroids [2]; 800 μM,below 30%
same,metabolic activity and viability compared to normally grown spheroids,"U87 spheroids [1]; cryopreserved spheroids, comparable doses",slightly higher metabolic activity and viability
same,response timing,"U87 spheroids [1]; cryopreserved spheroids, more substantial reductions at 400 μM and 800 μM",slightly delayed responses
same,metabolic activity,"U87 spheroids [1]; doses ≥100 μM, both normal and cryopreserved spheroids",metabolic activity was suppressed
"C[S+](C)[O-] [DMSO, dimethyl sulfoxide]","viability at 48 h, 1 % (v/v)",in vitro,> 99%
same,"viability at 48 h, 5 % (v/v)",in vitro,> 99%
same,"viability at 48 h, 10 % (v/v)",in vitro,< 50%
same,"viability at 48 h, 20 % (v/v)",in vitro,5%
same,cell viability,"U87 spheroids [2]; 10% and 20% DMSO, particularly in cryopreserved samples",viability decreased
same,metabolic activity,"U87 spheroids [1]; cryopreserved spheroids, 10% and 20% DMSO",declining sharply
same,metabolic activity,"U87 spheroids [1]; normally grown spheroids, 1% DMSO (v/v), over 48 hours",linear increase in metabolic activity
same,metabolic activity,"U87 spheroids [1]; normally grown spheroids, higher concentrations (5%, 10%, 20% DMSO)","temporary reductions in metabolic activity at the 6-hour mark, followed by partial recovery"
